Source: patent US8173654B2, “Triazolopyridazine compounds” (Janssen Pharmaceutica N.V., priority 2005, dated 2012)

Assays:
c-Met [1] = target: T1, c-Met (Homo sapiens, UniProt P08581); experiment: Delfia autophosphorylation kinase assay on the c-Met; format: biochemical; design: The purified His6 tagged cytoplasmic domain of c-Met was diluted to a concentration of 500 ng/ml; host or cells: Sf9 insect cells (baculovirus, pFastBacHTa); settings: His6 tagged cytoplasmic domain of c-Met, 1 μM ATP; read-out: cMet Delfia autophos IC-50
Protocol: A DELFIA time resolved fluorescence assay was developed for screening of compounds that decreases the autophosphorylation thus the kinase activity of c-Met. The DELFIA assay is non-radioactive. The autophosphorylation of the c-Met is measured by an anti-phosphotyrosine antibody coupled to an Europium tag.
A major advantage of this format is that it allowed for the development of an autophosphorylation assay using Ni-chelate plates which bind the hexa-his tag on the recombinant Met kinase. The autophosphorylation assay allows one to use a known substrate, Met kinase itself, for the phosphorylation.
The assay procedure for screening is as follows. The purified His6 tagged cytoplasmic domain of c-Met was diluted to a concentration of 500 ng/ml in enzyme dilution buffer (50 mM Tris-HCl, pH8.0, 0.1% BSA) and dispensed to assay plates at a volume of 50 μl per well. Black opaque HisGrab Nickel coated 96 well plates (Pierce, Rockford, Ill.) were selected for use. Next, 2.5 μl of compound in 40% DMSO was added to test wells, 2.5 μl of 40% DMSO only was added to the negative control wells. The autophosphorylation reaction was initiated upon the addition of 50 μl of reaction buffer, 50 mM Tris-HCl, pH 8.0, 10 mM MgCl2, 0.1 mM Na3VO4, 1 mM DTT, 1 μM ATP. Plates were incubated at room temperature for 1 hour followed by 2 washes with 200 μl/well of PBS. Europium conjugated anti-phosphotyrosine antibody, Eu-PY20 from Perkin Elmer was diluted to 50 ng/ml in Delfia AB buffer (Perkin Elmer, Boston, Mass.), added to the 96 well assay plates at a volume of 100 μl/well, and incubated at room temperature for 2 hours. Assay plates were then washed 4 times each with 200 μl/well of Delfia wash buffer (Perkin Elmer). After the final wash 150 μl of Delfia Enhancement solution (Perkin Elmer) was added to each well of the assay plate and incubated at room temperature for 1 hour. Plates were read on an LJL Analyst instrument (Molecular Devices; Sunnyvale, Calif.) with filter settings of 360 excitation, 620 emission, and 410 dichroic. IC50 values were calculated using Graphpad Prism software (Graphpad Software; San Diego, Calif.).
Target sequence in this assay (P08581 956-1390 limits assumed): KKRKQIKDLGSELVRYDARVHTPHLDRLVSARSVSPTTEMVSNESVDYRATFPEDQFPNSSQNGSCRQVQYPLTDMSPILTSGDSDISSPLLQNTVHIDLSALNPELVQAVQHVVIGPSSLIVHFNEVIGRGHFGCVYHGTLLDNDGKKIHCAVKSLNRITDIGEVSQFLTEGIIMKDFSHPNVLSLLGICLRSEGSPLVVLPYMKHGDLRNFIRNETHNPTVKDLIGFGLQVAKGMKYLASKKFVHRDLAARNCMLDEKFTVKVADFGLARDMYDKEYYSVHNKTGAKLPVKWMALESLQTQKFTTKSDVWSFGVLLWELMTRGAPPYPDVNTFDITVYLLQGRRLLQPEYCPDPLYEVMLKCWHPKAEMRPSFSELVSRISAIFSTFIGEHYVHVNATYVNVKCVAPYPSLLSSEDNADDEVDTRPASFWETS

c-Met [2] = target: T1, c-Met; experiment: Cell based ELISA assay for HGF stimulated c-Met phosphorylation in S114 cells; design: expressed in transfected cells; host or cells: S114 (murine NIH 3T3 derived); settings: read-out: c-Met Cell ELISA IC-50
Protocol: A cell based ELISA assay was developed to evaluate the ability of compounds to inhibit HGF stimulated c-Met phosphorylation in cells.
S114 cells were seeded to a 96 well tissue culture treated dish at a concentration of 5×10^4 per well. After a 16-20 hour incubation, culture medium was removed and replaced with serum free medium supplemented with 0.5% BSA. Test compound was then added and incubated with the cells for 60 minutes, followed by the addition of 1 μl HGF at […] for 15 minutes. […] Following another 1 hour incubation at room temperature the plates were washed three times with Delfia wash buffer (Perkin Elmer). After the final wash, […] of Delfia enhancer solution (Perkin Elmer) was added and allowed to incubate for 60 minutes. Plates were read on an LJL Analyst instrument (Molecular Devices; Sunnyvale, Calif.) with filter settings of 360 excitation, 620 emission, and 410 dichroic. IC50 values were calculated using Graphpad Prism software (Graphpad Software; San Diego, Calif.).
Target sequence in this assay (P08581 25-1390): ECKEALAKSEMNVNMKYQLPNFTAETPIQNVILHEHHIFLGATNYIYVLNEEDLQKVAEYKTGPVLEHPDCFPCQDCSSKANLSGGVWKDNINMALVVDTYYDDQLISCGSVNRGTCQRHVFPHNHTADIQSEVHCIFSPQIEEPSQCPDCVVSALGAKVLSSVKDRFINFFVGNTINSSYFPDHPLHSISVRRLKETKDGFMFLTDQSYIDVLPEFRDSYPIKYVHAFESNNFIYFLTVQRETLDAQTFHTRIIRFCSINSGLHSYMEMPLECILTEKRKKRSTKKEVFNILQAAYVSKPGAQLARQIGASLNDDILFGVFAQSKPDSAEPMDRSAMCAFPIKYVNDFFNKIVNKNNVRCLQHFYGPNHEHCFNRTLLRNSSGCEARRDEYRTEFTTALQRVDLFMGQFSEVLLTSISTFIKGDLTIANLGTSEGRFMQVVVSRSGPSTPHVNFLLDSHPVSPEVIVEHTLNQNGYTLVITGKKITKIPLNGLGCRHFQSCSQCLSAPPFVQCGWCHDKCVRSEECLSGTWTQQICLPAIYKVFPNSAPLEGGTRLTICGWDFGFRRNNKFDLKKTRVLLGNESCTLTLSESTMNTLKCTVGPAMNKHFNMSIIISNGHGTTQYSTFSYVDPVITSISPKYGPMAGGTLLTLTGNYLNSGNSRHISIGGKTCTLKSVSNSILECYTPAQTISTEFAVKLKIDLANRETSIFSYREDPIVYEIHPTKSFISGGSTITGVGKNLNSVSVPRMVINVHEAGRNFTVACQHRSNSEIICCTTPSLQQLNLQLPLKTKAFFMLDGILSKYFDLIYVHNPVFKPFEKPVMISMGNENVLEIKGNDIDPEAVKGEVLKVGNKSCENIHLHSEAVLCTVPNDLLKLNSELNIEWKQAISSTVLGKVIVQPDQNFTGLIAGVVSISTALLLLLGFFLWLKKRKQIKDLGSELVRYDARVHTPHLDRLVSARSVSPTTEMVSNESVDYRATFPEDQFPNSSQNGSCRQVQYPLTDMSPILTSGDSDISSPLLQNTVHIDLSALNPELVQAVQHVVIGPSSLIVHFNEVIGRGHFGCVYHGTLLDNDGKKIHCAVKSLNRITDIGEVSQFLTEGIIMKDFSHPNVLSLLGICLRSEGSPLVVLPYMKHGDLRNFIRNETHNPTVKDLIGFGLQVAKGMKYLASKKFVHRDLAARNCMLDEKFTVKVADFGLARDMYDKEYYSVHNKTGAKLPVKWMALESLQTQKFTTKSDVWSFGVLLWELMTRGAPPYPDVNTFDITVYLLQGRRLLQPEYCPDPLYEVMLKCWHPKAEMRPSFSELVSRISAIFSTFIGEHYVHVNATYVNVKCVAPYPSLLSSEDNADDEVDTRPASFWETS

| IC50 (c-Met [1]) [nM] | IC50 (c-Met [2]) [nM] | SMILES |
| --- | --- | --- |
| 15 | 9 | c1csc(-c2ccc3nnc(Cc4ccc5c(c4)CCO5)n3n2)c1 [Example 22, 3-(2,3-Dihydro-benzofuran-5-ylmethyl)-6-thiophen-2-yl-[1,2,4]triazolo[4,3-b]pyridazine] |
| 41 | 113 | Cc1ccsc1-c1ccc2nnc(Cc3ccc4c(c3)CCO4)n2n1 [Example 23, 3-(2,3-Dihydro-benzofuran-5-ylmethyl)-6-(3-methyl-thiophen-2-yl)-[1,2,4]triazolo[4,3-b]pyridazine] |
| 41 | 483 | COc1ccc(Cc2nnc3ccc(-c4cccs4)nn23)cc1 [Example 25, 3-(4-Methoxy-benzyl)-6-thiophen-2-yl-[1,2,4]triazolo[4,3-b]pyridazine] |
| 77 | 2400 | COc1ccc(Cc2nnc3ccc(-c4cccs4)nn23)cn1 [Example 31, 3-(6-Methoxy-pyridin-3-ylmethyl)-6-thiophen-2-yl-[1,2,4]triazolo[4,3-b]pyridazine] |
| 96 | 9900 | c1csc(-c2ccc3nnc(Cc4ccncc4)n3n2)c1 [Example 33, 3-Pyridin-4-ylmethyl-6-thiophen-2-yl-[1,2,4]triazolo[4,3-b]pyridazine] |
| 9 | 75 | c1csc(-c2ccc3nnc(Cc4ccc5occc5c4)n3n2)c1 [Example 35, 3-Benzofuran-5-ylmethyl-6-thiophen-2-yl-[1,2,4]triazolo[4,3-b]pyridazine] |
| 16 | 346 | c1csc(-c2ccc3nnc(Cc4ccc5c(c4)OCO5)n3n2)c1 [Example 37, 3-Benzo[1,3]dioxol-5-ylmethyl-6-thiophen-2-yl-[1,2,4]triazolo[4,3-b]pyridazine] |
| 0.45 | 2 | Nc1nc2ccc(Cc3nnc4ccc(-c5cccs5)nn34)cc2s1 [Example 38, 6-(6-Thiophen-2-yl-[1,2,4]triazolo[4,3-b]pyridazin-3-ylmethyl)-benzothiazol-2-ylamine] |
| 2 | 1 | c1csc(-c2ccc3nnc(Cc4ccc5ncccc5c4)n3n2)c1 [Example 39, 6-(6-Thiophen-2-yl-[1,2,4]triazolo[4,3-b]pyridazin-3-ylmethyl)-quinoline] |

The next lines start with the compound.

| SMILES | IC50 (c-Met [1]) [nM] | IC50 (c-Met [2]) [nM] |
| --- | --- | --- |
| CCCn1cc(-c2ccc3nnc(Cc4ccc5ncccc5c4)n3n2)cn1 [Example 9, 6-[6-(1-Propyl-1H-pyrazol-4-yl)-[1,2,4]triazolo[4,3-b]pyridazin-3-ylmethyl]-quinoline] | 1.6 | 48 |
| c1cncc(-c2ccc3nnc(Cc4ccc5ncccc5c4)n3n2)c1 [Example 11, 6-(6-Pyridin-3-yl-[1,2,4]triazolo[4,3-b]pyridazin-3-ylmethyl)-quinoline] | 6 | 86 |
| Nc1nc2ccc(Cc3nnc4ccc(-c5cccnc5)nn34)cc2s1 [Example 13, 6-(6-Pyridin-3-yl-[1,2,4]triazolo[4,3-b]pyridazin-3-ylmethyl)-benzothiazol-2-ylamine] | 15 | 215 |
| CS(=O)(=O)n1cc(-c2ccc3nnc(Cc4ccc5ncccc5c4)n3n2)cn1 [Example 15, 6-[6-(1-Methanesulfonyl-1H-pyrazol-4-yl)-[1,2,4]triazolo[4,3-b]pyridazin-3-ylmethyl]-quinoline] | 2 | 88 |
| COCCn1cc(-c2ccc3nnc(Cc4ccc5ncccc5c4)n3n2)cn1 [Example 16, 6-{6-[1-(2-Methoxy-ethyl)-1H-pyrazol-4-yl]-[1,2,4]triazolo[4,3-b]pyridazin-3-ylmethyl}-quinoline] | 9 | 295 |
| Oc1ccc(Cc2nnc3ccc(-c4nccs4)nn23)cc1 [Example 18, 4-(6-Thiazol-2-yl-[1,2,4]triazolo[4,3-b]pyridazin-3-ylmethyl)-phenol] | 10 | 86 |
| CCCc1ncc(-c2ccc3nnc(Cc4ccc5ncccc5c4)n3n2)s1 [Example 20, 6-[6-(2-Propyl-thiazol-5-yl)-[1,2,4]triazolo[4,3-b]pyridazin-3-ylmethyl]-quinoline] | 1 | 7 |
